Assay results from patent US20120035180A1, “PHARMACEUTICAL COMPOSITION FOR TREATING CANCER COMPRISING CHLORIN E6-FOLIC ACID CONJUGATE COMPOUND AND CHITOSAN” (priority 2009, published 2012).

What was measured:
sarcoma M-1 [1] = assay: Necrotic area in sarcoma M-1 after PDT; format: in vivo, rats; details: 10.0 mg/kg, 1 hr exposure after application
Method: After fixation, transverse sections of the tumor nodule in its highest diameter were made, and pictures were taken by a camera connected to a computer.
For quantitative assessment of necroses formed after PDT, computer analysis of color tints of histo-topographic tumor slides was performed using a special program.
The program included an algorithm of blue color identification (Evans blue), which stained viable areas of the tumor. Tumor areas killed from direct cytotoxic effect or due to structural-functional disorders of microcirculation were not stained in blue. The ratio of all non-stained dots to the total amount of dots in the fence of the tumor slide was considered to be the destruction efficiency.
For this purpose, a laser medical instrument “ ? 680-2000” (BIOSPEC, Moscow) was used to perform the exposure at a wavelength of 670 nm in a dose of 100 J/cm^2. The power density was 0.51 W/cm^2, the output power was 0.4 W, and the spot light diameter was 1 cm. Time of exposure was […]. Monitoring over radiating power was conducted by a universal power meter included in the laser device “ ? 680-2000”.

HeLa tumor cells = assay: Cytotoxicity (antiproliferative assay) in the absence of light exposure; format: cell-based; details: 24 hr incubation
Method: Cytotoxicity was analyzed, considering the intensity of proliferative processes in cells, photosensitizer concentration, and dose of optical power. For each point, 3 flasks with cell monolayer were used.
The monolayer culture of HeLa tumor cells was chosen and used as the cell.
The culture of HeLa tumor cells was grown in nutrient medium 199 or in nutrient medium containing hemohydrolyzate supplemented with 10% fetal bovine serum and […] of kanamycin.
On day 4 after the cell culture was inoculated in the flasks (100,000 cells per 2.0 ml of nutrient medium), the photosensitizer was added at a concentration of 1, 2.5, 5.0, 10.0, 20.0, or 30.0 mg/ml.
Flasks with light-protective cover (dark cytotoxicity) were incubated at 37.5° C. for 1 hour. The cells were washed with Hank's solution 4 times. 2.0 ml of fresh nutrient medium were added, and the cells were irradiated at the temperature of melting ice for 5, 10, 15 or 20 mins by the light flux of a “METALAZ” laser medical device (wavelength: 627.8 nm, 578.2 or 510.6 nm) or “LD 680-2000” (wavelength: 670-690 nm), depending on the wavelength of maximum spectral absorption of the studied photosensitizer, at a dose of 40 J/cm^2. After 20-24 hours, the number of tumor cell was counted in Goriaev's chamber.

Hela cells [2] = assay: Competition assay with exogenous folic acid in Hela cells; format: cell-based; details: 4 μM/l folic acid, 24 hours
Text: Then, the sample was centrifuged, the supernatant was taken, and the pellet was rewashed with cooled Hank's solution. The obtained pellet was again transferred into Hank's solution.

sarcoma M-1 [3] = assay: Growth dynamics and growth inhibition of sarcoma M-1 after PDT; format: in vivo, rats
Method: The power density was 0.51 W/cm^2, the output power was 0.4 W, and the spot light diameter was 1 cm. […] Monitoring over radiating power was conducted by a universal power meter included in the laser device “ ? 680-2000”.

Hela cells [4] = assay: Phototoxicity, 24 h incubation, 1.5-15 joule/cm^2; format: cell-based; details: 670-690 nm
Method: In other experiment, the cells were incubated with photosensitizers at 37° C. for 24 hours, and irradiated by exposed on ice by a laser medical device “LD 680-2000” (wavelength of 670-690 nm) in a dose of 1.5-15 joule/cm^2.

[5] = Spectral and fluorescent parameters of chlorin e6 conjugate in different systems; format: physicochemical
Method: Pigment-protein complexes have been formed by adding to the solution of human serum albumin (HAS) a specific amount of photosensitizer dissolved in the same buffer. […] Similarly, the photosensitizer was included in detergent micelle (Triton X-100, C=10^−3M).
The electronic absorption spectra of the subject solution were recorded on Specord UV-Vis. The fluorescence spectra and value of degree of fluorescence polarization (P) were recorded on an automatic spectrofluorimeter (Institute of Physics). Life time of photosensitizer fluorescence (ts) was estimated using an impulse fluorometer operating in the mode of photons counting.
The main feature of the absorption spectrum is intensive (ε=4.8 10^4 M^−1cm^−1) Qx (0-0) band at 660 nm, which falls into the spectral window of the majority of biological tissues.
Complex formation of chlorin e6 conjugate, and HSA, liposomes or detergent micelles leads to bathochromic shift in the absorption and fluorescence spectra of pigment. However, an increase in fluorescence photoresponse (B) was observed, which correlates with the growth of life time (ts) without changing of the Kravec integral value.

Substance: [γ-(6-aminohexyl)folic acid]-chlorin e6 [chlorin e6 conjugate]
- anti-tumor effect of PDT (sarcoma M-1 [1]): most prominent anti-tumor effect
- cell survival rates (HeLa tumor cells): about 90%
- effect of free folic acid on uptake in Hela cells (Hela cells [2]): significantly reduced
- Growth inhibition rate of sarcoma M-1 of rats in volume to the control (sarcoma M-1 [3]; 2.5 mg/100 g + 100 J/cm^2 for 1 h, day 7): 47.5
- Growth inhibition rate of sarcoma M-1 of rats in volume to the control (sarcoma M-1 [3]; 2.5 mg/100 g + 100 J/cm^2 for 1 h, day 10): 79.4
- Growth inhibition rate of sarcoma M-1 of rats in volume to the control (sarcoma M-1 [3]; 2.5 mg/100 g + 100 J/cm^2 for 1 h, day 12): 87.6
- Growth inhibition rate of sarcoma M-1 of rats in volume to the control (sarcoma M-1 [3]; 2.5 mg/100 g + 100 J/cm^2 for 1 h, day 14): 89.8
- Growth inhibition rate of sarcoma M-1 of rats in volume to the control (sarcoma M-1 [3]; 2.5 mg/100 g + 100 J/cm^2 for 1 h, day 17): 94.8
- Growth inhibition rate of sarcoma M-1 of rats in volume to the control (sarcoma M-1 [3]; 2.5 mg/100 g + 100 J/cm^2 for 1 h, day 19): 94.1
- Growth inhibition rate of sarcoma M-1 of rats in volume to the control (sarcoma M-1 [3]; 2.5 mg/100 g + 100 J/cm^2 for 1 h, day 21): 94.2
- Growth inhibition rate of sarcoma M-1 of rats in volume to the control (sarcoma M-1 [3]; 2.5 mg/100 g + 100 J/cm^2 for 1 h, day 24): 93.6
- Growth dynamics of sarcoma M-1 (volume) (sarcoma M-1 [3]; 2.5 mg/kg + 100 J/cm^2 for 1 h, day 7 after tumor transplant): 0.25 ± 0.03 cm^3
- Growth dynamics of sarcoma M-1 (volume) (sarcoma M-1 [3]; 2.5 mg/kg + 100 J/cm^2 for 1 h, day 10 after tumor transplant): 0.28 ± 0.03 cm^3
- Growth dynamics of sarcoma M-1 (volume) (sarcoma M-1 [3]; 2.5 mg/kg + 100 J/cm^2 for 1 h, day 12 after tumor transplant): 0.34 ± 0.06 cm^3
- Growth dynamics of sarcoma M-1 (volume) (sarcoma M-1 [3]; 2.5 mg/kg + 100 J/cm^2 for 1 h, day 14 after tumor transplant): 0.41 ± 0.09 cm^3
- Growth dynamics of sarcoma M-1 (volume) (sarcoma M-1 [3]; 2.5 mg/kg + 100 J/cm^2 for 1 h, day 17 after tumor transplant): 0.46 ± 0.11 cm^3
- Growth dynamics of sarcoma M-1 (volume) (sarcoma M-1 [3]; 2.5 mg/kg + 100 J/cm^2 for 1 h, day 19 after tumor transplant): 0.69 ± 0.27 cm^3
- Growth dynamics of sarcoma M-1 (volume) (sarcoma M-1 [3]; 2.5 mg/kg + 100 J/cm^2 for 1 h, day 21 after tumor transplant): 0.96 ± 0.38 cm^3
- Growth dynamics of sarcoma M-1 (volume) (sarcoma M-1 [3]; 2.5 mg/kg + 100 J/cm^2 for 1 h, day 24 after tumor transplant): 1.19 ± 0.48 cm^3
- Growth inhibition rate of sarcoma M-1 of rats in volume to the control (sarcoma M-1 [3]; 5 mg/100 g + 100 J/cm^2 for 1 h, day 7): 36.9
- Growth inhibition rate of sarcoma M-1 of rats in volume to the control (sarcoma M-1 [3]; 5 mg/100 g + 100 J/cm^2 for 1 h, day 10): 77.9
- Growth inhibition rate of sarcoma M-1 of rats in volume to the control (sarcoma M-1 [3]; 5 mg/100 g + 100 J/cm^2 for 1 h, day 12): 89.1
- Growth inhibition rate of sarcoma M-1 of rats in volume to the control (sarcoma M-1 [3]; 5 mg/100 g + 100 J/cm^2 for 1 h, day 14): 92.6
- Growth inhibition rate of sarcoma M-1 of rats in volume to the control (sarcoma M-1 [3]; 5 mg/100 g + 100 J/cm^2 for 1 h, day 17): 95.8
- Growth inhibition rate of sarcoma M-1 of rats in volume to the control (sarcoma M-1 [3]; 5 mg/100 g + 100 J/cm^2 for 1 h, day 19): 95.9
- Growth inhibition rate of sarcoma M-1 of rats in volume to the control (sarcoma M-1 [3]; 5 mg/100 g + 100 J/cm^2 for 1 h, day 21): 96.9
- Growth inhibition rate of sarcoma M-1 of rats in volume to the control (sarcoma M-1 [3]; 5 mg/100 g + 100 J/cm^2 for 1 h, day 24): 97.1
- Growth dynamics of sarcoma M-1 (volume) (sarcoma M-1 [3]; 5 mg/kg + 100 J/cm^2 for 1 h, day 7 after tumor transplant): 0.29 ± 0.02 cm^3
- Growth dynamics of sarcoma M-1 (volume) (sarcoma M-1 [3]; 5 mg/kg + 100 J/cm^2 for 1 h, day 10 after tumor transplant): 0.300 ± .03 cm^3
- Growth dynamics of sarcoma M-1 (volume) (sarcoma M-1 [3]; 5 mg/kg + 100 J/cm^2 for 1 h, day 12 after tumor transplant): 0.30 ± 0.03 cm^3
- Growth dynamics of sarcoma M-1 (volume) (sarcoma M-1 [3]; 5 mg/kg + 100 J/cm^2 for 1 h, day 14 after tumor transplant): 0.30 ± 0.03 cm^3
- Growth dynamics of sarcoma M-1 (volume) (sarcoma M-1 [3]; 5 mg/kg + 100 J/cm^2 for 1 h, day 17 after tumor transplant): 0.37 ± 0.05 cm^3
- Growth dynamics of sarcoma M-1 (volume) (sarcoma M-1 [3]; 5 mg/kg + 100 J/cm^2 for 1 h, day 19 after tumor transplant): 0.47 ± 0.11 cm^3
- Growth dynamics of sarcoma M-1 (volume) (sarcoma M-1 [3]; 5 mg/kg + 100 J/cm^2 for 1 h, day 21 after tumor transplant): 0.50 ± 0.14 cm^3
- Growth dynamics of sarcoma M-1 (volume) (sarcoma M-1 [3]; 5 mg/kg + 100 J/cm^2 for 1 h, day 24 after tumor transplant): 0.54 ± 0.17 cm^3
- Growth inhibition rate of sarcoma M-1 of rats in volume to the control (sarcoma M-1 [3]; 10 mg/100 g + 100 J/cm^2 for 1 h, day 7): 56.5
- Growth inhibition rate of sarcoma M-1 of rats in volume to the control (sarcoma M-1 [3]; 10 mg/100 g + 100 J/cm^2 for 1 h, day 10): 86.0
- Growth inhibition rate of sarcoma M-1 of rats in volume to the control (sarcoma M-1 [3]; 10 mg/100 g + 100 J/cm^2 for 1 h, day 12): 93.8
- Growth inhibition rate of sarcoma M-1 of rats in volume to the control (sarcoma M-1 [3]; 10 mg/100 g + 100 J/cm^2 for 1 h, day 14): 95.8
- Growth inhibition rate of sarcoma M-1 of rats in volume to the control (sarcoma M-1 [3]; 10 mg/100 g + 100 J/cm^2 for 1 h, day 17): 98.1
- Growth inhibition rate of sarcoma M-1 of rats in volume to the control (sarcoma M-1 [3]; 10 mg/100 g + 100 J/cm^2 for 1 h, day 19): 95.2
- Growth inhibition rate of sarcoma M-1 of rats in volume to the control (sarcoma M-1 [3]; 10 mg/100 g + 100 J/cm^2 for 1 h, day 21): 98.8
- Growth inhibition rate of sarcoma M-1 of rats in volume to the control (sarcoma M-1 [3]; 10 mg/100 g + 100 J/cm^2 for 1 h, day 24): 98.9
- Growth dynamics of sarcoma M-1 (volume) (sarcoma M-1 [3]; 10 mg/kg + 100 J/cm^2 for 1 h, day 7 after tumor transplant): 0.20 ± 0.03 cm^3
- Growth dynamics of sarcoma M-1 (volume) (sarcoma M-1 [3]; 10 mg/kg + 100 J/cm^2 for 1 h, day 10 after tumor transplant): 0.19 ± 0.04 cm^3
- Growth dynamics of sarcoma M-1 (volume) (sarcoma M-1 [3]; 10 mg/kg + 100 J/cm^2 for 1 h, day 12 after tumor transplant): 0.17 ± 0.03 cm^3
- Growth dynamics of sarcoma M-1 (volume) (sarcoma M-1 [3]; 10 mg/kg + 100 J/cm^2 for 1 h, day 14 after tumor transplant): 0.17 ± 0.03 cm^3
- Growth dynamics of sarcoma M-1 (volume) (sarcoma M-1 [3]; 10 mg/kg + 100 J/cm^2 for 1 h, day 17 after tumor transplant): 0.17 ± 0.03 cm^3
- Growth dynamics of sarcoma M-1 (volume) (sarcoma M-1 [3]; 10 mg/kg + 100 J/cm^2 for 1 h, day 19 after tumor transplant): 0.17 ± 0.03 cm^3
- Growth dynamics of sarcoma M-1 (volume) (sarcoma M-1 [3]; 10 mg/kg + 100 J/cm^2 for 1 h, day 21 after tumor transplant): 0.20 ± 0.03 cm^3
- Growth dynamics of sarcoma M-1 (volume) (sarcoma M-1 [3]; 10 mg/kg + 100 J/cm^2 for 1 h, day 24 after tumor transplant): 0.20 ± 0.03 cm^3
- phototoxicity / photosensitivity in survival test (Hela cells [4]): improved the photosensitivity
- 1^00fl ([5]; Dimethyl sulfoxide): 672 nm
- absorption maximum wavelength (Qx 0-0 band) ([5]; Dimethyl sulfoxide): 661 Nm
- 1^00fl ([5]; H2O, pH 8.1): 664 nm
- absorption maximum wavelength (Qx 0-0 band) ([5]; H2O, pH 8.1): 657 Nm
- 1^00fl ([5]; HSA, pH 8.1): 669 nm
- absorption maximum wavelength (Qx 0-0 band) ([5]; HSA, pH 8.1): 664 Nm
- 1^00fl ([5]; Liposomes, pH 8.1): 670 nm
- absorption maximum wavelength (Qx 0-0 band) ([5]; Liposomes, pH 8.1): 665 Nm
- 1^00fl ([5]; Methanol): 667 nm
- absorption maximum wavelength (Qx 0-0 band) ([5]; Methanol): 662 Nm
- 1^00fl ([5]; Pyridine): 673 nm
- absorption maximum wavelength (Qx 0-0 band) ([5]; Pyridine): 666 Nm
- 1^00fl ([5]; Tetrahydrofuran): 673 nm
- absorption maximum wavelength (Qx 0-0 band) ([5]; Tetrahydrofuran): 667 Nm
- 1^00fl ([5]; Triton X-100, pH 8.1): 670 nm
- absorption maximum wavelength (Qx 0-0 band) ([5]; Triton X-100, pH 8.1): 665 Nm
